Each block holds one molecule with its values, some of them ahead of it.
Experiments:
CFP-T7 [1] = test: Surfactant resistance of amadoriase during addition of each stabilizer (CFP-T7); assay type: biochemical, genus Coniochaeta; conditions: 500 mM HEPES (pH 7.0), 0.01% CTAC
Description: In the above surfactant resistance measuring method, various stabilizers are added and the residual activity of an amadoriase is measured in order to evaluate the effect of the stabilizers. […] The concentration sufficient to provide a buffer capacity to a solution refers to the concentration at which pH is maintained within a predetermined range (for example pH5 to 10, pH6 to 8) without having pH change due to other reagents added to the solution. A concentration insufficient to provide a buffer capacity to a solution refers to the concentration at which pH changes by addition of other reagents to the solution and pH falls outside a particular range. These concentrations vary depending upon the type and amount of other reagents to be added to a solution; however, a person skilled in the art can appropriately determine the concentration by conventional methods. Other conditions and procedure can be the same as in the above surfactant resistance measuring method.
It was studied whether or not the addition of any of various stabilizers enhanced the surfactant resistance of an amadoriase. Phosphoric acid, a tricarboxylic acid (e.g., citric acid), a dicarboxylic acid (e.g., malic acid, maleic acid, citraconic acid, malonic acid, glutaric acid, or tartaric acid), a monpcarboxylic acid (e.g., acetic acid), MES, MOPS, MOPSO, or ammonium sulfate was used as a stabilizer. As a Comparative Example, CHES was used. To prevent change in pH when adding the stabilizer, 500 mM HEPES (pH 7.0) was used as a buffer solution; CFP-T7 purified as described above was used as a sample; the final concentration of CTAC was set at 0.01%; and any of the stabilizers was further added to evaluate the surfactant resistance of CFP-T7 according to the measurement method for surfactant resistance in Example 1. Using a 500 mM HEPES (pH 7.0) buffering agent and CFP-D2 purified as described above as a sample, any of the stabilizers was further added, and the surfactant resistance of CFP-D2 was evaluated according to the measurement method for surfactant resistance in Example 1 although under more harsh surfactant treatment conditions in which the final concentration of CTAC was set at 0.08% and the treatment temperature at 37° C.

PnFX = test: Surfactant resistance of PnFX during addition of each stabilizer; assay type: biochemical, Phaeosphaeria nodorum; conditions: Stabilizer 20 mM; 300 mM HEPES (pH 7.0); 0.04% CTAC
Description: The same stabilizers as those described above were used as stabilizers; 300 mM HEPES (pH 7.0) was used as a buffering agent to prevent a change in pH when the stabilizers was each added; PnFX purified as described above was used as a sample; the final concentration of CTAC was set at 0.04%; and the surfactant resistance of PnFX was evaluated as described above.

CFP-T7 [2] = test: Surfactant resistance of amadoriase in presence of buffering agents; assay type: biochemical, genus Coniochaeta; conditions: for CFP-T7 Residual Activity (%): 0.01% CTAC, purified CFP-T7; for amadoriase stabilizing effect of the buffer (in words): CFP-T7 in the presence of surfactant
Description: In the above surfactant resistance measuring method, the residual activity of an amadoriase is measured by using various buffers in place of a 30 mM MES/21 mM Tris buffer solution. In this manner, the contribution of the buffer to the amadoriase residual activity can be evaluated. For example, in place of the 30 mM MES/21 mM Tris buffer solution (pH 6.5), e.g., a phosphate buffer solution (pH 7.0), a citrate buffer solution (pH 6.0), a HEPES buffer solution (pH 7.0) or an ACES buffer solution (pH 7.0) can be used. Other conditions and procedure can be the same as in the above surfactant resistance measuring method.
It was studied whether the surfactant resistance of an amadoriase is enhanced or not when a buffering agent other than a 30 mM MES/21 mM Tris buffering agent (pH 6.5) was used. Using CFP-T7 purified as described above as a sample, the final concentration of CTAC was set at 0.01% to evaluate the surfactant resistance of CFP-T7 according to the measurement method for surfactant resistance in Example 1 in the presence of any of various buffering agents, specifically a phosphate buffering agent containing phosphoric acid and potassium phosphate (pH 7.0), a citrate buffering agent containing citric acid and sodium citrate (pH 6.0), an MES buffering agent containing MES and it sodium salt (pH 7.0), an HEPES buffering agent containing HEPES and its sodium salt (pH 7.0), and an ACES buffering agent containing ACES and its sodium salt (pH 7.0), in place of the 30 mM MES/21 mM Tris buffering agent (pH 6.5).

[3] = Measurement of fructosyl peptide sample (αFVH) under mixing of CTAC, change in absorbance at 751 nm; assay type: biochemical; conditions: for Amount of Change in Absorbance at Wavelength of 751 nm under Mixing of Each Concentration of CTAC: as in Example 5, Table 7
Description: The purified enzyme of CFP-T7 and CFP-D7 obtained in Example 3-2 was used to measure a sample as shown below. The activity values of CFP-T7 and CFP-D7 were determined using (reagent 1) adjusted to pH 7.0 with αFVH at a final concentration of 5 mM as a substrate according to the method for measuring amadoriase activity.
(Reagent 4) αFVH (125 mg) was dissolved in ion-exchanged water, the volume of the solution was fixed to 10 ml, and thereby a 30 mM substrate solution was obtained. In addition, the resultant was diluted by 1/714 with a CTAC solution to provide a 42 μM αFVH/0% to 0.2% CTAC solution.
(Reagent 6) (50 μl) was added to a mixed solution of 135 μl of (reagent 5) warmed at 37° C. for 5 minutes in advance and 25 μl of the sample prepared in (11) above to start reaction, and absorbance at a wavelength of 751 nm after reaction at 37° C. for 5 minutes was measured using an automated analyzer, Bio Majesty JCA-BM1650 (from JEOL Ltd.). Absorbance (reagent blank) at a wavelength of 751 nm measured by a similar operation for (reagent 4) prepared using ion-exchanged water in place of the substrate solution was used as a control to calculate the amount of change in absorbance (difference) when each sample was measured, using the following equation. The final concentration of a colorimetric substrate, DA-64, was 0.15 mM; the final concentration of αFVH in the case of the presence of a substrate was 5 μM; and the length (optical path) of the cell used for absorbance measurement was 1 cm. Amount of change in absorbance=ΔAes−Ae0
The amount of change in absorbance when αFVH/0% to 0.2% CTAC were used as samples was calculated.
The purified preparations of amadoriases obtained as described above were used as samples to measure αFVH under the mixing of CTAC using PnFX and NvFX as in Example 5.

[4] = Buffer Solution 100 mM, pH 7.0 (citrate pH 6.0)

Molecule: CC(=O)O [Acetate, acetic acid]
CFP-T7 Residual Activity (%) (CFP-T7 [1]; Stabilizer 10 mM, Table 9-1): 8.9% | CFP-T7 Residual Activity (%) (CFP-T7 [1]; Stabilizer 20 mM, Table 9-1): 20.7% | CFP-T7 Residual Activity (%) (CFP-T7 [1]; Stabilizer 50 mM, Table 9-1): 52.4% | PnFX Residual Activity (%) (PnFX): 42.6%

Molecule: O=S(=O)(O)CCN1CCN(CCO)CC1 [HEPES, 4-2-hydroxyethyl-1-piperazine-ethanesulfonic acid, reference compound]
CFP-T7 Residual Activity (%) (CFP-T7 [2]; Buffer Solution 50 mM, pH 7.0 (citrate pH 6.0)): 13.2% | CFP-T7 Residual Activity (%) (CFP-T7 [2]; [4]): 13.2% | CFP-T7 Residual Activity (%) (CFP-T7 [2]; Buffer Solution 150 mM, pH 7.0): 12.2% | CFP-T7 Residual Activity (%) (CFP-T7 [2]; Buffer Solution 300 mM, pH 7.0): 9.6% | amadoriase stabilizing effect of the buffer (in words) (CFP-T7 [2]): does not have an amadoriase stabilizing effect | amadoriase stabilizing effect of the buffer (in words) (CFP-T7 [2]; listed as HEPES buffering agent): not observed

Molecule: C/C(=C/C(=O)O)C(=O)O [Citraconate, citraconic acid]
CFP-T7 Residual Activity (%) (CFP-T7 [1]; Stabilizer 2 mM, Table 9-2): 18.5% | CFP-T7 Residual Activity (%) (CFP-T7 [1]; Stabilizer 10 mM, Table 9-2): 89.1%

Molecule: O=C(O)CCCC(=O)O [Glutarate, glutaric acid]
CFP-T7 Residual Activity (%) (CFP-T7 [1]; Stabilizer 2 mM, Table 9-2): 4.5% | CFP-T7 Residual Activity (%) (CFP-T7 [1]; Stabilizer 10 mM, Table 9-2): 55.9%

Molecule: NC(=O)CNCCS(=O)(=O)O [ACES, N-(2-acetamido)-2-aminoethanesulfonic acid]
CFP-T7 Residual Activity (%) (CFP-T7 [2]; Buffer Solution 20 mM, pH 7.0 (citrate pH 6.0)): 15.6% | CFP-T7 Residual Activity (%) (CFP-T7 [2]; [4]): 16.4% | CFP-T7 Residual Activity (%) (CFP-T7 [2]; Buffer Solution 200 mM, pH 7.0): 22.1%

Molecule: O=S(=O)(O)CCNC1CCCCC1 [CHES, N-cyclohexyl-2-aminoethane sulfonic acid, reference compound]
stabilizing action of the stabilizer (in words) (CFP-T7 [1]; CFP-T7): did not have any stabilizing action | CFP-T7 Residual Activity (%) (CFP-T7 [1]; Stabilizer 20 mM, Table 9-2): 3.0%

B1: NvFX: ketoamine oxidase derived from Neocosmospora vasinfecta, SEQ ID NO: 38 (protein, listed as Neocosmospora vasinfecta)
chain: MTTPRKETTVLIIGGGGTIGSSTALHLLRAGYTPSNITVLDTYPIPSAQSAGNDLNKIMGIRLRNKVDLQLSLEARDMWRNDALFRPFFHNTGRLDCESSAEGVEGLRREYQKLVEAGVGLEETHEWLDSEEAILEKAPLLQREEIEGWKAIWSEEGGWLAAAKAINAIGEELQRQGVRFGFGGAGSFKRPLFADDGTTCIGVETVDGTQYHADKVVLAAGAWSPALVDLEEQCCSKAWVYAHMQLTPEEAAVYKGCPVVYHGDVGFFFEPNENGVIKVCDEFPGFTRFKQHQPYGAPAPKPVSVPRSHAKHPTDTYPDASEESIKRAVSTFLPRFKDKPLFNRALCWCTDTADSALLICEHPRWKNFILATGDSGHSFKLLPIIGKHVVELVEGRLADDLAEAWRWRPGQGDARKSIRAAPAKDLADMPGWKHDQDSESR
measurement of αFVH under the mixing of CTAC (in words) [3]: αFVH could not accurately be measured | Amount of Change in Absorbance at Wavelength of 751 nm under Mixing of Each Concentration of CTAC ([3]; Mixing of CTAC 0%): 0.118 | Amount of Change in Absorbance at Wavelength of 751 nm under Mixing of Each Concentration of CTAC ([3]; Mixing of CTAC 0.01%): 0.013 | Amount of Change in Absorbance at Wavelength of 751 nm under Mixing of Each Concentration of CTAC ([3]; Mixing of CTAC 0.02%): 0.013 | Amount of Change in Absorbance at Wavelength of 751 nm under Mixing of Each Concentration of CTAC ([3]; Mixing of CTAC 0.04%): 0.007 | Amount of Change in Absorbance at Wavelength of 751 nm under Mixing of Each Concentration of CTAC ([3]; Mixing of CTAC 0.06%): 0.004 | Amount of Change in Absorbance at Wavelength of 751 nm under Mixing of Each Concentration of CTAC ([3]; Mixing of CTAC 0.1%): 0.003 | Amount of Change in Absorbance at Wavelength of 751 nm under Mixing of Each Concentration of CTAC ([3]; Mixing of CTAC 0.2%): 0.001

The next lines start with the values.

CFP-T7 Residual Activity (%) (CFP-T7 [1]; Stabilizer 2 mM, Table 9-2): 5.3% | CFP-T7 Residual Activity (%) (CFP-T7 [1]; Stabilizer 10 mM, Table 9-2): 70.0%
Molecule: O=C(O)C(O)C(O)C(=O)O (centres unmarked) [Tartrate, tartaric acid]

CFP-T7 Residual Activity (%) (CFP-T7 [1]; Stabilizer 2 mM, Table 9-2): 10.8% | CFP-T7 Residual Activity (%) (CFP-T7 [1]; Stabilizer 10 mM, Table 9-2): 77.3%
Molecule: O=C(O)CC(=O)O [Malonate, malonic acid]

CFP-T7 Residual Activity (%) (CFP-T7 [1]; Stabilizer 10 mM, Table 9-2): 9.0% | CFP-T7 Residual Activity (%) (CFP-T7 [1]; Stabilizer 20 mM, Table 9-2): 23.5%
Molecule: O=S(=O)(O)CC(O)CN1CCOCC1 (centres unmarked) [MOPSO, 2-hydroxy-3-morpholino-propanesulfonic acid]

CFP-T7 Residual Activity (%) (CFP-T7 [1]; Stabilizer 2 mM, Table 9-2): 15.5% | CFP-T7 Residual Activity (%) (CFP-T7 [1]; Stabilizer 10 mM, Table 9-2): 81.5%
Molecule: O=C(O)/C=C\C(=O)O [Maleate, maleic acid]

Reference: patent US11549134B2, “Modified amadoriase and method for producing the same, agent for improving surfactant resistance of amadoriase and composition for measuring HbA1c using the same” (Kikkoman Corporation, priority 2013, dated 2023)
